One test concerns Mmp9. Put plainly: MMP9 activity in BAL of Arhgef1−/− mice after aerosol exposure. The format is in vivo, mouse. The conditions noted are these: inhalation of aerosol 20 min (220 μM PTXA2, 190 μM U-46619), BAL 24 hours later. Here is the method: FIG. 4. TP signaling is required for MMP9 production in vitro and in vivo. A) Macrophage Mmp9 expression after culture on fibronectin for 24 hrs in media/vehicle (−), 40 nM S1P, 10 μM LPA, 10 nM U-46619 (TP agonist) or 6 μM PTXA2 (TP antagonist). Data represent normalized mean±SE. B) Arhgef1−/− mice (n=16) were exposed to aerosolized PBS (n=16), 220 μM PTXA2 (n=6) or 190 μM U-46619 (n=10) for 20 minutes and BAL harvested 1 day later and MMP activity measured.

A further test deals with MMP2. Put plainly: MMP2 activity by gelatin zymography in conditioned media of mouse peritoneal macrophages cultured on fibronectin. It counts as cell-based. The conditions noted are these: wild type and Arhgef1−/− macrophages; 20 mM aspirin or 28 μM L-655,240. Here is the method: FIG. 12. Thromboxane receptor signaling is necessary for fibronectin-induced MMP9 production by macrophages and is attenuated by Arhgef1. A, representative gelatin zymograms of conditioned media from macrophages cultured on plastic (ctl) or FN and treated with 1.56 or 6.25 μM of the thromboxane receptor antagonist PTA2. Wild type (+/+) and Arhgef1^−/− (−/−) samples from separate zymograms are shown. B, quantitation of MMP9 activity as determined by densitometric analysis of zymograms in A. The results are representative of two independent experiments. C, representative zymograms from conditioned media from macrophages cultured on plastic or fibronectin and treated with 28 μM of the thromboxane receptor antagonist L-655,240. D, quantitation of MMP9 activity as determined by densitometric analysis of zymograms in C. The results are compiled from two independent experiments with n=4 for both wild type (open bars) and Arhgef1^−/− (black bars) samples. […] E, MMP2 activity was quantitated in conditioned media as previously described for MMP9. […] The data represent the means±S.E. F, MMP9 activity was quantitated as previously described and normalized to a percentage of fibronectin response for each genotype. […] G, relative Mmp9 expression was measured by qPCR in macrophages cultured on fibronectin in the presence of the thromboxane receptor agonist (U-46619, 10 nM), S1P (40 nM), or LPA (10 μM). […]

`CCCCC[C@@H](O)/C=C/[C@H]1C[C@H]2C[C@@H]([C@@H]1C/C=C\CCCC(=O)O)C2(C)C` (relative stereo) [PTXA2, (18-(1alpha,2beta(Z),3alpha(1E,3S*),5alpha))-7-(3-(3-Hydroxy-1-octenyl)-6,6-dimethylbicyclo(3.1.1)hept-2-yl)-5-heptenoic acid]: the “MMP9 activity in BAL” value in the test on Mmp9 is on record as “considerably diminished MMP9 activity”. For the compound `CC(=O)Oc1ccccc1C(=O)O` [aspirin], in the test on MMP2, the MMP2 activity entry was “not affected”.

(Values after US9820951B2, “Pulmonary disease treatment and diagnosis based on Arhgef1” (NATIONAL JEWISH HEALTH, A NON-PROFIT ORGANIZATION, priority 2011, dated 2017).)
